# Measured values reported in article PMC12219075 (Scientific Reports, 2025).
# pIC50: −log10 of the molar value.
# Target: Proto-oncogene tyrosine-protein kinase Src (SRC) (Homo sapiens, UniProt P12931)
# Test: mobility shift kinase assay
# Assay type: biochemical
# Sequence of Proto-oncogene tyrosine-protein kinase Src (SRC) (P12931 2-536): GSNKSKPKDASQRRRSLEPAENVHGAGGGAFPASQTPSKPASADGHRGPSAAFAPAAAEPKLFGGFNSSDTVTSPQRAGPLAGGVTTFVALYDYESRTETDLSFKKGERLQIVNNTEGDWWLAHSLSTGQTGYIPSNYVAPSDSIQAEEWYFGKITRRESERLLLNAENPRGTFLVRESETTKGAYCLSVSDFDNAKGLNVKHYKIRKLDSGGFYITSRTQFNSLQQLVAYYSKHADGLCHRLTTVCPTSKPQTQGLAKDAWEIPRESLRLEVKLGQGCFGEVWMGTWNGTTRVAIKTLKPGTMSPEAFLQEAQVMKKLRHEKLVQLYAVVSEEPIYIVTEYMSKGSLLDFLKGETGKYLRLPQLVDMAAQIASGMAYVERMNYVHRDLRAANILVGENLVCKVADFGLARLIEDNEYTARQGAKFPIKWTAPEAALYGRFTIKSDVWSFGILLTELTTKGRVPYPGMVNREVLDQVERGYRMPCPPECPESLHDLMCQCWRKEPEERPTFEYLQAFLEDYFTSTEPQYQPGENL
row,pIC50,Compound
1,4.57,"CC1(C)CC[C@]2(C(=O)O)CC[C@]3(C)C(=CC[C@@H]4[C@@]5(C)C[C@@H](O)[C@H](O)C(C)(C)[C@@H]5CC[C@]43C)[C@@H]2C1 [compound 102, crataegolic acid]"
2,4.65,"C[C@@H]1CC[C@]2(C(=O)O)CC[C@]3(C)C(=CC[C@@H]4[C@@]5(C)C[C@@H](O)[C@@H](O)C(C)(C)[C@@H]5CC[C@]43C)[C@@H]2[C@]1(C)O [compound 99, 2α,3α,19α-trihydroxyurs-12-en-28-oic acid]"
3,4.52,"CC1(C)CC[C@]2(C(=O)O)CC[C@]3(C)C(=CC[C@@H]4[C@@]5(C)CC[C@H](O)C(C)(C)[C@@H]5CC[C@]43C)[C@@H]2C1 [compound 116, oleanolic acid]"
